Patent US20250032488A1, “METHODS OF TREATMENT USING LOU064” (NOVARTIS AG, priority 2021, published 2025)

Legend:
BALB/c mice = assay: Passive cutaneous anaphylaxis (PCA) in mice: skin edema; type: in vivo; conditions: doses as low as 3 mg/kg, two oral administrations
Procedure: LOU064 was tested in a murine PCA model. The model used BALB/c mice aged 8-10 weeks of age. For passive sensitization with hapten-specific IgE, mice under isoflurane anesthesia were given an intradermal injection of 20 μl anti-DNP IgE in saline into the right ear and 20 μl of saline into the left ear. For FccR-specific PCA, mice were given a low dose of 3 ng anti-DNP IgE. For maximal PCA mice were given a high dose of 25 ng anti-DNP IgE. LOU064 was administered p.o. in a volume of 5 ml/kg body weight. A first dose was administered 4 hours after sensitization on the evening before challenge. The next morning, 2 hours prior to hapten challenge, mice were given a second oral dose of LOU064.
Mice were challenged with hapten 2 hours after the second dose by placing them into a heated chamber. Animals were then injected i.v. with 100 μg of the hapten DNP-HSA (dinitrophenyl-human serum albumin) in 200 μl of 2% Evans blue diluted in PBS. The mice were then returned to their cage for exactly 30 minutes. Thirty minutes later, animals were then anesthetized with isoflurane and bled retro-orbitally using EDTA coated blood collection tubes for analysis of compound exposure. […] Twenty-four hours later 80 μl of formalin solution were transferred to a clear flat bottom 96 well plate and the optical absorption was read at 620 nm. […] Statistical significance was determined by ANOVA. […]

BTK = biological target: T1, BTK (Mus musculus, UniProt P35991); assay: BTK occupancy in spleen and lung, RPA study; type: in vivo, mice; conditions: single dose 30 mg/kg, 3 hours after eliciting the Arthus reaction
T1 construct: each spleen was crushed and lysed in a GentleMACS; from tissue; host or cells: mouse spleen (BALB/c, C57Bl6) and lung (C57Bl6)
Procedure: For BTK occupancy in spleen, the experiment was performed as described in the PCA example. For lung BTK occupancy, lysates were prepared from complete lungs including tracheas after perfusing the organs with saline to remove blood in the same manner as for spleen (except that the lysis buffer volume was 500 μl). The lung lysates were then analyzed for free BTK in a separate ELISA. This consisted of a capture step with anti-BTK (Cell Signaling Technologies, #8547, carrier free). Then the captured BTK protein was incubated with 1 μM of covalent biotinylated BTK probe for 1 hour at room temperature. The BTK-bound biotinylated probe was detected by with a streptavidin-HRP conjugate (Cell Signaling Technologies, #3999, used at a dilution of 1:1′000) and a chemiluminescence substrate (Supersignal ELISA Pico, Thermo Scientific, #37070). The luminescence values were corrected for ELISA background reads from control samples measured in absence of BTK capture antibody for the total BTK ELISA and in absence of probe for the BTK-bound ELISA, respectively. The relative BTK occupancy was calculated as the ratio of free BTK (signal of the covalent biotinylated probe bound BTK) to total BTK for each sample: R=free BTK/total BTK. The individual Ri values were then normalized to the vehicle group and expressed as percent occupancy: (average of Ri vehicle group−Ri)/(average of Ri vehicle group)*100%.

[1] = test system: human primary skin-derived mast cells; assay: Histamine release from skin-derived human mast cells; type: cell-based; conditions: Mast cell, n=2 donors
Procedure: Rationale and method: Skin tissue was used as a source of primary human tissue mast cells. Surgical skin discard samples were provided under informed consent and collected by the University Hospital Basel in accordance with the Swiss Human Research Act and approval of the responsible ethic committee (Ethikkommission Nordwest und Zentralschweiz). Skin tissue was dissociated and intact mast cells were prepared according to the protocol of Kulka and Metcalfe (Kulka et al. 2010, current protocols in Immunology; SUPPL. 90:1-11). The isolated mast cells were characterized phenotypically and used for a degranulation assay as described above ((Neuberger, M.S. et al. (1985), Nature 314 (6008), pp 268-70. doi: 10.1038/314268a0). The mast cells were sensitized with JW8 IgE antibody and then pre-incubated with serial compound dilutions for 30 minutes at 37° C. Then degranulation was triggered by adding haptenized NIP-BSA to crosslink the FcERI. After 30 minutes, supernatants were collected and analyzed for histamine with an HTRF-based immunoassay (Cisbio Bioassays).

C57BI6 mice = assay: Reverse passive Arthus (RPA) reaction in mouse skin: skin swelling; type: in vivo; conditions: for Inhibition of the Arthus reaction (skin swelling): dosed 2 hours prior to induction, read at 3 hours
Procedure: The effect of a single dose of LOU064 was tested in the acute mouse reverse passive Arthus (RPA) model to assess its effect on a dermal anaphylaxis reaction triggered by IgG immune complexes and mediated by FcGRIIl on mast cell.
Female C57BI6 mice (Charles River, France), 8-10 weeks of age, were used. The back of the mice was shaved 24 hours prior to the skin injections. This allowed any potential irritation of the skin to resolve. The Arthus reaction was triggered two hours after compound dosing in the dose-response study or at the timepoints noted in the time-course study. To elicit the Arthus reaction, 50 μl of PBS (control site) or polyclonal rabbit anti-ovalbumin IgG at a concentration of 30 μg in PBS (C6534, Sigma) was injected i.d. into the dorsal skin. The intradermal injection was followed immediately by an i.v. injection of 200 μl ovalbumin (20 mg/kg) in saline (05450 Fluka). Three hours after the injection of the ovalbumin the mice were killed, bled for monitoring of the compound concentration and the spleens removed for BTK occupancy measurement. The thickness of the injected control and anti-ovalbumin IgG skin sites was measured using a digital caliper, and the thickness of the anti-ovalbumin IgG injected sites minus the saline control sites were then calculated for the mice in all treatment groups.

T1 sequence (P35991 whole entry): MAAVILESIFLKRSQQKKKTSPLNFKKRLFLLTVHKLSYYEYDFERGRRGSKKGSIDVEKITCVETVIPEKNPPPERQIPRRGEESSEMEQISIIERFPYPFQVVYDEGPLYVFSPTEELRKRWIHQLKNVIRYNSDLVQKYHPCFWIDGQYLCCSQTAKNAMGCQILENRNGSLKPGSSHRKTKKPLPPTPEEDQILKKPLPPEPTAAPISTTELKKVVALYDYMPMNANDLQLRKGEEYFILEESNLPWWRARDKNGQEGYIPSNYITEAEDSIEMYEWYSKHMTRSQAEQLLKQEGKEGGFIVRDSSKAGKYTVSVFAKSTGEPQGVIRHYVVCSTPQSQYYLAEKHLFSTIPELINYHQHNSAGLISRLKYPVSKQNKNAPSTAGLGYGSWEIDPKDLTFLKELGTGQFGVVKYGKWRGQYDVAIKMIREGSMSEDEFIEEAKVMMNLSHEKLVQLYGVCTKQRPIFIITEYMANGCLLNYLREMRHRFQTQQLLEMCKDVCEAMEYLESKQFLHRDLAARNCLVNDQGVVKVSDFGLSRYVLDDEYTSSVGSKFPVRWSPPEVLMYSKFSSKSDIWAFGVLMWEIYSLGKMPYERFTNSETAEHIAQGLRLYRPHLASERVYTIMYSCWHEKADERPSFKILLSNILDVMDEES

C=CC(=O)N(C)CCOc1c(N)ncnc1-c1cc(F)cc(NC(=O)c2ccc(C3CC3)cc2F)c1C [LOU064, N-(3-(6-amino-5-(2-(N-methylacrylamido)ethoxy)pyrimidin-4-yl)-5-fluoro-2-methylphenyl)-4-cyclopropyl-2-fluorobenzamide]
Inhibition of the anaphylactic response (PCA) (BALB/c mice): near complete inhibition | BTK occupancy kinetic in spleen and lung compared to effect on skin swelling (BTK): very similar kinetic | IC50 [1]: 16.5 nM | Inhibition of skin swelling (time-course study) (C57BI6 mice; 30 mg/kg p.o., Arthus reaction elicited 2 hours post dosing): 65.7% | Inhibition of the Arthus reaction (skin swelling) (C57BI6 mice; 30 mg/kg single p.o.): 73% | Inhibition of the Arthus reaction (skin swelling) (C57BI6 mice; 100 mg/kg single p.o.): 61.2% | Timepoint at which pharmacologic effect in the skin returned to vehicle levels (C57BI6 mice; single dose 30 mg/kg p.o.): ≤ 45 hours
